Molecules are shown by their SMILES.

The target in this experiment is T1, Met receptor (EGFR/Met chimeric cells, EMR) (Homo sapiens, UniProt P08581).
T1 construct: expressed in transfected cells; the other entry of the earlier key: EGFR (P00533, Epidermal growth factor receptor)
T1 sequence (P08581 with tags, fused parts or gaps): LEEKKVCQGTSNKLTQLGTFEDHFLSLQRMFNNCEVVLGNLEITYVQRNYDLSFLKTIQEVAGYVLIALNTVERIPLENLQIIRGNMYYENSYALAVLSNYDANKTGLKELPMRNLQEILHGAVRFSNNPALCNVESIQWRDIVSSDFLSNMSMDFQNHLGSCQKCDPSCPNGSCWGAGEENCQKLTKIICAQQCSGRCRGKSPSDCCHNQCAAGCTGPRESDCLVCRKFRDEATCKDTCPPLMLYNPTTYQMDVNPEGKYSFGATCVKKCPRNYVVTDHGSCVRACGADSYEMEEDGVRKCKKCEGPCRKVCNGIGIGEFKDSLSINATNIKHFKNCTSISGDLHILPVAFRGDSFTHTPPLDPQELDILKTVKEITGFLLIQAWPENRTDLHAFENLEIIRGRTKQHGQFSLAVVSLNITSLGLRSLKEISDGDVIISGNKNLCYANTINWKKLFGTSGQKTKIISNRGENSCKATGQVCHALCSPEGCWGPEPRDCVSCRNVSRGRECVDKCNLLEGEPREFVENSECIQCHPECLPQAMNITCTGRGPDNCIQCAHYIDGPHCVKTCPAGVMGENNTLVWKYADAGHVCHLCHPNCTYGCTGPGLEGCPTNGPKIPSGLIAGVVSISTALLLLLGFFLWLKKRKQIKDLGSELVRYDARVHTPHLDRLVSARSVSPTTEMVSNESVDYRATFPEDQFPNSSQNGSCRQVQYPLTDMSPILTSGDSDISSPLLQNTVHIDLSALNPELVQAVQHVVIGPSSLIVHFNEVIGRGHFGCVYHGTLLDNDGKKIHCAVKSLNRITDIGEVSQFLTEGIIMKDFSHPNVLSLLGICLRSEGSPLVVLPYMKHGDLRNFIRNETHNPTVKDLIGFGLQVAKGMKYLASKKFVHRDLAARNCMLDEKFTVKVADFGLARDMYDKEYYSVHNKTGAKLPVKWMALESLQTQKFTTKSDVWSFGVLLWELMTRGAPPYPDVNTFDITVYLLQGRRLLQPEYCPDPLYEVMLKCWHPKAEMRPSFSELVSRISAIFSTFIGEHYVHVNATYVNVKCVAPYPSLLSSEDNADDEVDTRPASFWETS
The experiment in a line: Met Autophosphorylation Assay. It counts as biochemical. The conditions noted are these: protocol P.130. The gist of the method: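 Transiently transfected EGFR/Met chimeric (EMR) cells were lysed in HNTG with 1 mM PMSF. Met was captured on plates coated with goat anti-rabbit IgG, then rabbit anti-Met (C-28), using 90 μg lysate/100 μl for 60 min at room temperature. Phosphotyrosine was read by ELISA.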
Take `CNS(=O)(=O)c1ccc2c(c1)C(=Cc1cnc3ccccc3c1)C(=O)N2` [10740/D02]: the “Met Kinase % Inhibition (P.130)” value worked out at 49.9%.

With `Cc1[nH]c2ccccc2c1C=C1C(=O)Nc2ccc(I)cc21` [10740/B08], the “Met Kinase % Inhibition (P.130)” value turned out to be 65.0%.

With `Cc1[nH]c2ccccc2c1C=C1C(=O)Nc2c(Br)cc(Br)c(C)c21` [10740/H08], the “Met Kinase % Inhibition (P.130)” value was 28.1%.

Take `O=C1Nc2ccc(S(=O)(=O)Nc3ccc(C(F)(F)F)cc3)cc2C1=Cc1cc(Br)cs1` [10740/E10]: the “Met Kinase % Inhibition (P.130)” value is listed as 61.9%.

Consider `COC1CCCN1C=C1C(=O)Nc2ccc(S(=O)(=O)Nc3ccc(C(F)(F)F)cc3)cc21` (stereo not drawn) [10740/E04], for which the “Met Kinase % Inhibition (P.130)” value is listed as 41.8%.

Turning to `O=C1Nc2ccc(S(=O)(=O)Nc3ccc(C(F)(F)F)cc3)cc2C1=Cc1cnc2ccccc2c1` [10740/E02], the “Met Kinase % Inhibition (P.130)” value turned out to be 48.2%.

Regarding `Cc1c(Br)ccc2c1C(=Cc1ccc3ccccc3n1)C(=O)N2` [10740/C06], the “Met Kinase % Inhibition (P.130)” value worked out at 49.3%.

Turning to `Cc1c(Br)cc(Br)c2c1C(=Cc1ccsc1)C(=O)N2` [10740/H05], the “Met Kinase % Inhibition (P.130)” value stood at 25.6%.

On to `COC1CCCN1C=C1C(=O)Nc2ccc(I)cc21` (racemic) [10740/B04], for which the “Met Kinase % Inhibition (P.130)” value stood at 76.7%.

For the molecule `CNS(=O)(=O)c1ccc2c(c1)C(=Cc1cc(Br)cs1)C(=O)N2` [10740/D10], the “Met Kinase % Inhibition (P.130)” value turned out to be 16.1%.

For the molecule `O=C1Nc2ccc(I)cc2C1=Cc1ccc2ccccc2n1` [10740/B06], the “Met Kinase % Inhibition (P.130)” value is 68.9%.

As for `O=C1Nc2ccc(I)cc2C1=Cc1cc(Br)cs1` [10740/B10], the “Met Kinase % Inhibition (P.130)” value was 58.0%.

Take `O=C1Nc2ccc(I)cc2C1=Cc1cnc2ccccc2c1` [10740/B02]: the “Met Kinase % Inhibition (P.130)” value was found to be 79.2%.

With `O=C1Nc2ccc(CCCl)cc2C1=Cc1ccc2ccccc2n1` [10740/G06], the “Met Kinase % Inhibition (P.130)” value was found to be 25.0%.

Turning to `CCCCOc1ccc(C=C2C(=O)Nc3c(Br)cc(Br)c(C)c32)cc1` [10740/H11], the “Met Kinase % Inhibition (P.130)” value is 17.2%.

As to `Cc1c(Br)ccc2c1C(=Cc1ccsc1)C(=O)N2` [10740/C05], the “Met Kinase % Inhibition (P.130)” value was determined as 66.1%.

With `COC1CCCN1C=C1C(=O)Nc2c(Br)cc(Br)cc21` (racemic) [10740/A04], the “Met Kinase % Inhibition (P.130)” value was 48.2%.

For the molecule `O=C1Nc2c(Br)cc(Br)cc2C1=Cc1ccnc2ccccc12` [10740/A03], the “Met Kinase % Inhibition (P.130)” value came out at 77.8%.

Turning to `Cc1c(Br)cc(Br)c2c1C(=Cc1cn(C)c3ccccc13)C(=O)N2` [10740/H07], the “Met Kinase % Inhibition (P.130)” value turned out to be 1.5%.

Take `Cc1c(Br)ccc2c1C(=Cc1cnc3ccccc3c1)C(=O)N2` [10740/C02]: the “Met Kinase % Inhibition (P.130)” value worked out at 45.1%.

With `O=C1Nc2ccc(CCCl)cc2C1=Cc1ccnc2ccccc12` [10740/G03], the “Met Kinase % Inhibition (P.130)” value is 34.8%.

`CNS(=O)(=O)c1ccc2c(c1)C(=Cc1ccnc3ccccc13)C(=O)N2` [10740/D03]: the “Met Kinase % Inhibition (P.130)” value is listed as 64.4%.

`Cn1cc(C=C2C(=O)Nc3c(Br)cc(Br)cc32)c2ccccc21` [10740/A07]: the “Met Kinase % Inhibition (P.130)” value amounted to 54.9%.

On to `O=C1Nc2ccc(S(=O)(=O)Nc3ccc(C(F)(F)F)cc3)cc2C1=Cc1ccnc2ccccc12` [10740/E03], for which the “Met Kinase % Inhibition (P.130)” value is reported as 66.4%.

For the molecule `CCCCOc1ccc(C=C2C(=O)Nc3ccc(I)cc32)cc1` [10740/B11], the “Met Kinase % Inhibition (P.130)” value stood at 68.6%.

As to `Cc1c(Br)cc(Br)c2c1C(=Cc1ccc3ccccc3n1)C(=O)N2` [10740/H06], the “Met Kinase % Inhibition (P.130)” value was 33.4%.

On to `O=C1Nc2ccc(S(=O)(=O)Nc3ccc(C(F)(F)F)cc3)cc2C1=Cc1ccsc1` [10740/E05], for which the “Met Kinase % Inhibition (P.130)” value is listed as 75.6%.

On to `Cc1c(Br)ccc2c1C(=Cc1cn(C)c3ccccc13)C(=O)N2` [10740/C07], for which the “Met Kinase % Inhibition (P.130)” value turned out to be 44.3%.

Regarding `Cc1c(Br)cc(Br)c2c1C(=Cc1cnc3ccccc3c1)C(=O)N2` [10740/H02], the “Met Kinase % Inhibition (P.130)” value amounted to 28.7%.

In the case of `CNS(=O)(=O)c1ccc2c(c1)C(=CN1CCCC1OC)C(=O)N2` (stereo not drawn) [10740/D04], the “Met Kinase % Inhibition (P.130)” value turned out to be 19.4%.

Consider `Cc1[nH]c2ccccc2c1C=C1C(=O)Nc2ccc(S(=O)(=O)N3CCOCC3)cc21` [10740/F08], for which the “Met Kinase % Inhibition (P.130)” value was determined as 35.9%.

In the case of `CCCCOc1ccc(C=C2C(=O)Nc3ccc(S(=O)(=O)Nc4ccc(C(F)(F)F)cc4)cc32)cc1` [10740/E11], the “Met Kinase % Inhibition (P.130)” value is listed as −16.9%.

`COC1CCCN1C=C1C(=O)Nc2ccc(Br)c(C)c21` (stereo not drawn) [10740/C04]: the “Met Kinase % Inhibition (P.130)” value is reported as −4.9%.

Regarding `Cc1c(Br)ccc2c1C(=Cc1ccnc3ccccc13)C(=O)N2` [10740/C03], the “Met Kinase % Inhibition (P.130)” value is reported as 63.6%.

In the case of `Cc1c(Br)cc(Br)c2c1C(=Cc1ccnc3ccccc13)C(=O)N2` [10740/H03], the “Met Kinase % Inhibition (P.130)” value is on record as 17.5%.

Take `O=C1Nc2c(Br)cc(Br)cc2C1=Cc1ccsc1` [10740/A05]: the “Met Kinase % Inhibition (P.130)” value came out at 79.5%.

Take `Cc1[nH]c2ccccc2c1C=C1C(=O)Nc2ccc(S(=O)(=O)Nc3ccc(C(F)(F)F)cc3)cc21` [10740/E08]: the “Met Kinase % Inhibition (P.130)” value is listed as 39.0%.

Consider `Cn1cc(C=C2C(=O)Nc3ccc(S(=O)(=O)N4CCOCC4)cc32)c2ccccc21` [10740/F07], for which the “Met Kinase % Inhibition (P.130)” value is 28.4%.

As for `O=C1Nc2ccc(CCCl)cc2C1=Cc1ccsc1` [10740/G05], the “Met Kinase % Inhibition (P.130)” value is 30.3%.

As to `O=C1Nc2ccc(CCCl)cc2C1=Cc1cc(Br)cs1` [10740/G10], the “Met Kinase % Inhibition (P.130)” value turned out to be 19.4%.

Turning to `COC1CCCN1C=C1C(=O)Nc2ccc(CCCl)cc21` (stereo not drawn) [10740/G04], the “Met Kinase % Inhibition (P.130)” value is reported as 9.1%.

In the case of `Cc1c(Br)cc(Br)c2c1C(=Cc1ccc(CO)o1)C(=O)N2` [10739/H11], the “Met Kinase % Inhibition (P.130)” value is reported as 75.8%.

For `O=C1Nc2ccc(S(=O)(=O)N3CCOCC3)cc2C1=Cc1cc(Br)cs1` [10740/F10], the “Met Kinase % Inhibition (P.130)” value is 58.3%.

Regarding `COC1CCCN1C=C1C(=O)Nc2ccc(S(=O)(=O)N3CCOCC3)cc21` (stereo not drawn) [10740/F04], the “Met Kinase % Inhibition (P.130)” value is on record as −5.2%.

Consider `O=C1Nc2ccc(CCCl)cc2C1=Cc1cnc2ccccc2c1` [10740/G02], for which the “Met Kinase % Inhibition (P.130)” value is 55.2%.

For `Cn1cc(C=C2C(=O)Nc3ccc(CCCl)cc32)c2ccccc21` [10740/G07], the “Met Kinase % Inhibition (P.130)” value came to 10.8%.

Regarding `Cn1cc(C=C2C(=O)Nc3ccc(S(=O)(=O)Nc4ccc(C(F)(F)F)cc4)cc32)c2ccccc21` [10740/E07], the “Met Kinase % Inhibition (P.130)” value was 19.7%.

`Cc1c(Br)cc(Br)c2c1C(=Cc1cc(Br)cs1)C(=O)N2` [10740/H10]: the “Met Kinase % Inhibition (P.130)” value was determined as 43.7%.

With `CNS(=O)(=O)c1ccc2c(c1)C(=Cc1ccsc1)C(=O)N2` [10740/D05], the “Met Kinase % Inhibition (P.130)” value was found to be 39.3%.

For `O=C1Nc2ccc(I)cc2C1=Cc1ccnc2ccccc12` [10740/B03], the “Met Kinase % Inhibition (P.130)” value was determined as 84.8%.

Turning to `CNS(=O)(=O)c1ccc2c(c1)C(=Cc1cn(C)c3ccccc13)C(=O)N2` [10740/D07], the “Met Kinase % Inhibition (P.130)” value was determined as 27.3%.

Regarding `Cn1cc(C=C2C(=O)Nc3ccc(I)cc32)c2ccccc21` [10740/B07], the “Met Kinase % Inhibition (P.130)” value turned out to be 73.7%.

Take `Cc1[nH]c2ccccc2c1C=C1C(=O)Nc2ccc(CCCl)cc21` [10740/G08]: the “Met Kinase % Inhibition (P.130)” value is reported as 33.4%.

`O=C1Nc2c(Br)cc(Br)cc2C1=Cc1cc(Br)cs1` [10740/A10]: the “Met Kinase % Inhibition (P.130)” value is listed as 45.1%.

In the case of `O=C1Nc2ccc(S(=O)(=O)Nc3ccc(C(F)(F)F)cc3)cc2C1=Cc1ccc2ccccc2n1` [10740/E06], the “Met Kinase % Inhibition (P.130)” value came to 16.6%.

As for `CCCCOc1ccc(C=C2C(=O)Nc3ccc(S(=O)(=O)N4CCOCC4)cc32)cc1` [10740/F11], the “Met Kinase % Inhibition (P.130)” value is reported as 42.9%.

For the molecule `Cc1[nH]c2ccccc2c1C=C1C(=O)Nc2c(Br)cc(Br)cc21` [10740/A08], the “Met Kinase % Inhibition (P.130)” value is 43.2%.

Consider `O=C1Nc2c(Br)cc(Br)cc2C1=Cc1cnc2ccccc2c1` [10740/A02], for which the “Met Kinase % Inhibition (P.130)” value was 56.3%.

For `O=C1Nc2ccc(S(=O)(=O)N3CCOCC3)cc2C1=Cc1cnc2ccccc2c1` [10740/F02], the “Met Kinase % Inhibition (P.130)” value is listed as 59.4%.

In the case of `O=C1Nc2ccc(S(=O)(=O)N3CCOCC3)cc2C1=Cc1ccc2ccccc2n1` [10740/F06], the “Met Kinase % Inhibition (P.130)” value is given as 25.3%.

Take `O=C1Nc2ccc(S(=O)(=O)N3CCOCC3)cc2C1=Cc1ccnc2ccccc12` [10740/F03]: the “Met Kinase % Inhibition (P.130)” value is listed as 32.8%.

For the molecule `CCCCOc1ccc(C=C2C(=O)Nc3ccc(Br)c(C)c32)cc1` [10740/C11], the “Met Kinase % Inhibition (P.130)” value is on record as −10.8%.

For `CNS(=O)(=O)c1ccc2c(c1)C(=Cc1ccc3ccccc3n1)C(=O)N2` [10740/D06], the “Met Kinase % Inhibition (P.130)” value stood at 41.8%.

For `CCCCOc1ccc(C=C2C(=O)Nc3ccc(S(=O)(=O)NC)cc32)cc1` [10740/D11], the “Met Kinase % Inhibition (P.130)” value is reported as −9.1%.

Consider `Cc1[nH]c2ccccc2c1C=C1C(=O)Nc2ccc(Br)c(C)c21` [10740/C08], for which the “Met Kinase % Inhibition (P.130)” value was 28.7%.

For `CCCCOc1ccc(C=C2C(=O)Nc3c(Br)cc(Br)cc32)cc1` [10740/A11], the “Met Kinase % Inhibition (P.130)” value was 30.3%.

With `O=C1Nc2ccc(S(=O)(=O)N3CCOCC3)cc2C1=Cc1ccsc1` [10740/F05], the “Met Kinase % Inhibition (P.130)” value is on record as 52.1%.

As to `O=C1Nc2ccc(I)cc2C1=Cc1ccsc1` [10740/B05], the “Met Kinase % Inhibition (P.130)” value turned out to be 82.3%.

With `O=C1Nc2c(Br)cc(Br)cc2C1=Cc1ccc2ccccc2n1` [10740/A06], the “Met Kinase % Inhibition (P.130)” value came out at 48.5%.

For `CCCCOc1ccc(C=C2C(=O)Nc3ccc(CCCl)cc32)cc1` [10740/G11], the “Met Kinase % Inhibition (P.130)” value turned out to be 13.3%.

Take `CNS(=O)(=O)c1ccc2c(c1)C(=Cc1c(C)[nH]c3ccccc13)C(=O)N2` [10740/D08]: the “Met Kinase % Inhibition (P.130)” value was 30.3%.

In the case of `COC1CCCN1C=C1C(=O)Nc2c(Br)cc(Br)c(C)c21` (stereo not drawn) [10740/H04], the “Met Kinase % Inhibition (P.130)” value came to 30.9%.

Values taken from patent publication US20020026053A1, “Novel 3-(substituted) -2- indolinones compounds and use thereof as inhibitors of protein kinase activity” (priority 1997, published 2002).
